# Results from patent publication US6689805B2, “Pyrazole-3-one derivative, method for preparing the same, and pharmaceutical composition containing the same” (CJ Corp., priority 2002, dated 2004).
# Experiments:
# COX-1 = target: T1, COX-1 (Homo sapiens, UniProt P23219); assay: Assay for the COX-1 inhibitory activity using U-937 (PGE2 inhibition); type: cell-based; conditions: test compound 1 μM; U-937 human lymphoma cells; PGE2 vs DMSO control; read-out: Cyclooxygenase (COX) Inhibition (%) COX-1 (1 μM)
# T1 construct: endogenous in cells
# T1 sequence (P23219 24-599): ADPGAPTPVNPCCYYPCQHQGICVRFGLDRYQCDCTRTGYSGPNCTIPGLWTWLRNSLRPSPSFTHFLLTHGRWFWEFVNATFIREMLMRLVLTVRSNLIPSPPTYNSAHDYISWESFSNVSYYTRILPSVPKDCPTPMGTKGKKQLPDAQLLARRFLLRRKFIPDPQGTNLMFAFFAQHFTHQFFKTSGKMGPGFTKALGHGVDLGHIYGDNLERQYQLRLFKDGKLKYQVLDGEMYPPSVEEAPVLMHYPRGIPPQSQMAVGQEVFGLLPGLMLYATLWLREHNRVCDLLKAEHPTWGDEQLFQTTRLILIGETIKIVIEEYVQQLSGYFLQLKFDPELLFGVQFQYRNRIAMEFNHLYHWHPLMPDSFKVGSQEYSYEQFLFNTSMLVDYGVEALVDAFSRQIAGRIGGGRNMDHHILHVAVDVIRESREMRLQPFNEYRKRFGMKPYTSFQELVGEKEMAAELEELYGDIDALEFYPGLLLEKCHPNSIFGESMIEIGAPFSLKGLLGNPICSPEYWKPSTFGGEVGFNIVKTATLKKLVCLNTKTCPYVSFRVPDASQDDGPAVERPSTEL
# Procedure: The collected cells were diluted with HBSS (x1, Hank's balanced salt solution) to a concentration of 1×10^6 cells/ml. 1 ml of the dilute cell solution was placed into each well of 12-well plates. 5 μl of 1 μM solution of a test compound in DMSO and 5 μl of DMSO as a control were added to the wells. The wells were incubated in CO2 incubator at 37° C. for 15 minutes. Separately, 10 mM stock solution of arachidonic acid in ethanol was diluted ten times in ethanol to prepare 1 mM solution of arachidonic acid. Arachidonic acid acts as a substrate. 10 μl of the 1 mM solution of arachidonic acid was added to each well and incubated at CO2 incubator at 37° C. for 30 minutes. The cell solution of each well was placed in a centrifuge test tube and centrifuged at 10,000 rpm at 4° C. for 5 minutes. The concentration of PGE2 in the collected cells and the supernatant was quantified by means of a monoclonal kit (Cayman Chemicals). The percentages of PGE2 inhibition in a group of the test compound-treated cells in relation to a group of the DMSO-treated cells were calculated. Based on the calculated values, the COX-1 inhibitory activities were evaluated.
# (§1) The percentages of the COX inhibition were calculated according to the following equation:
# (§2) % Inhibition=(concentration of PGE2 in test compound-untreated sample−concentration of PGE2 in test compound-treated sample) / (concentration of PGE2 in test compound-untreated sample)×100
# COX-2 = target: T2, COX-2 (Mus musculus, UniProt Q05769); assay: Assay for the COX-2 inhibitory activity using RAW 264.7 cell line (PGE2 inhibition); type: cell-based; conditions: RAW264.7, test compound 10 nM, RAW 264.7 cells, interferon + LPS induced, read-out: Cyclooxygenase (COX) Inhibition (%) COX-2 (10 nM)
# T2 construct: endogenous in cells
# T2 sequence (Q05769 18-604): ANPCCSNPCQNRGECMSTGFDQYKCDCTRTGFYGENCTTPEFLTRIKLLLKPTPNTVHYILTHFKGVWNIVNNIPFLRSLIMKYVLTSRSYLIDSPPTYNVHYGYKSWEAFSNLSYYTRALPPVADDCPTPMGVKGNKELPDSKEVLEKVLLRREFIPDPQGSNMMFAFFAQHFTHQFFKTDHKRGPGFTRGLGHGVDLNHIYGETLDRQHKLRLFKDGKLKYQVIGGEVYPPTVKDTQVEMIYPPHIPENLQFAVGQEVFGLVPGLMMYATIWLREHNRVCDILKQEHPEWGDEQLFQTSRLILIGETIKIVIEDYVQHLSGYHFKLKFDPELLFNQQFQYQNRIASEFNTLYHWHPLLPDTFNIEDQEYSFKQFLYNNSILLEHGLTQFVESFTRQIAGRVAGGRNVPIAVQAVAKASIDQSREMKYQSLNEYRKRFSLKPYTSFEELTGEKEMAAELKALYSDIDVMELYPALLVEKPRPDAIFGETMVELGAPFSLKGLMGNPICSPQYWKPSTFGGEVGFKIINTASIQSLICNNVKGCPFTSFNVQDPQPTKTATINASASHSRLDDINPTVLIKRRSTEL
# Procedure: Each well was treated with 250 μM of aspirin and incubated at 37° C. for 2 hours. After the culture media were replaced with new culture media, the new culture media were treated with a test compound (10 nM) and incubated for 30 minutes. Then, each well was treated with interferon ? (100 units/ml) and lipopolysaccharide (LPS, 100 ng/ml) and incubated for 18 hours. The culture media were transferred to other test tubes. The concentration of PGE2 was quantified by means of the EIA kit (Cayman Chemicals).
# as §1, §2
Compound,inhibition at 1 µM (COX-1),melting point,inhibition at 0.01 µM (COX-2)
"Cc1onc(-c2ccccc2)c1-c1ccc(S(N)(=O)=O)cc1 [Reference (Valdecoxib), Valdecoxib, reference compound]",28.8%,–,–
"Cn1c(-c2ccc(S(C)(=O)=O)cc2)c(-c2ccc(Cl)c(Cl)c2)c(=O)n1C [Example 8, 4-(3,4-dichlorophenyl)-5-(4-methanesulfonylphenyl)-1,2-dimethyl-1,2-dihydropyrazole-3-one]",–,240 to 242 °C,–
"COc1ccc(-c2c(-c3ccc(S(C)(=O)=O)cc3)n(C)n(C)c2=O)cc1 [Example 5, 5-(4-methanesulfonylphenyl)-4-(4-methoxyphenyl)-1,2-dimethyl-1,2-dihydropyrazole-3-one]",10.5%,245 to 247 °C,22.5%

# Results, then the compound that gave them:
inhibition at 1 µM (COX-1),melting point,inhibition at 0.01 µM (COX-2),Compound
36.5%,247 to 249 °C,12.5%,"Cc1ccc(-c2c(-c3ccc(S(C)(=O)=O)cc3)n(C)n(C)c2=O)cc1 [Example 7, 5-(4-methanesulfonylphenyl)-1,2-dimethyl-4-(4-methylphenyl)-1,2-dihydropyrazole-3-one]"
22.6%,210 to 212 °C,13.2%,"Cn1c(-c2ccc(S(C)(=O)=O)cc2)c(-c2ccccc2)c(=O)n1C [Example 6, 5-(4-methanesulfonylphenyl)-1,2-dimethyl-4-phenyl-1,2-dihydropyrazole-3-one]"
